A word on the inhibition: it is the change of the read-out against control, counted positive when it falls.

Read-outs that look alike come from different tables or passages of the source.

Assay in all cases: In vitro fungicide screen: inhibition of mycelial growth on agar medium
What all share (assay type): cell-based

The subject of one experiment is Pythium ultimum (Pyth). The settings on record: two days, room temperature; for inhibition at 1 ppm: Rate 1 ppm in agar medium. The procedure: (§1) Severe soilborne diseases such as damping off, seedling blight, crown rot, and root rot, among others are caused by certain plant pathogenic fungi. An in vitro assay is conducted to determine whether test compounds will inhibit the mycelial growth of said fungi. Pathogens, the method of testing, and the rating system used are reported below.
(§2) Assay fungi include the following plant pathogens: • Botrytis cinerea (Botry) • Pseudocerosporella herpotrichoides (Pseudo) • Pythium ultimum (Pyth) • Rhizoctonia solani (Rhiz)
(§3) The test compound (2.5-10 mg) is dissolved in 0.5 mL acetone, diluted with 4.5 mL sterile deionized water, and mixed with 95 mL of an autoclaved and partially cooled, chemically defined agar medium in a 250 mL flask. Test compounds that are insoluble are prepared as a fine suspension ultrasonically, or with a glass tissue grinder, before addition to the medium. The chemically defined medium used in these experiments is as follows: • 15 g of sucrose, 0.5 g NH4Cl, 0.5 g KNO3, 0.5 g KH2PO4, 0.5 g K2HP04, 0.25 g MgSO4.7H2O, 50 mg CaC)2.6H20, 0.75 mg FeSO4.7H2O, 0.22 mg MnSO4.5H2O, 0.6 mg CuSO4.5H2O, 7.5 mg ZnC12, 2.5 mg thiamine, 60 µg(NH4)6Mo7O24.4H2O, 90 u.g H3BO3, 5 ug biotin, 20 g agar, and water to 1L.
(§4) The mixture of test compound and agar medium as described above is poured into several 100 mm x 15 mm sterile plastic plates and allowed to solidify. The surface of each plate is inoculated with a single disc of mycelium and agar cut with an 8 mm diameter cork borer from actively growing cultures of assay fungi on a chemically defined agar medium. The plates are incubated at room temperature. Growth inhibition is determined when the mycelial growth on unamended control media has reached the edge of the petri plates. The time interval varies depending on the growth rate of the fungus; two days for Pythium ultimum (Pyth) and Rhizoctonia solani (Rhiz), five days for Botrytis cinerea (Botry), and 7-10 days for Pseudocercosporella herpotrichoides (Pseudo). Each colony diameter is measured and compared with the untreated control and the percent inhibition is calculated as follows: [formula] Each test includes a solvent blank consisting of the formulation without a test compound in addition to the untreated control.

The test system of experiment [1] is Pseudocercosporella herpotrichoides (Pseudo). The settings on record: 7-10 days, room temperature. The procedure: as §1, §2, §3, §4
Experiment [2] deals with Rhizoctonia solani (Rhiz). The settings on record: for inhibition at 10 ppm: read-out: % Growth Inhibition Rhiz. The method, then:
as §1, §2, §3, §4

The subject of the next experiment is Botrytis cinerea (Botry). The settings on record: five days, room temperature. The procedure: as §1, §2, §3, §4
Where [3] appears, read: Rhizoctonia solani, 48 h, Rate 10 ppm in agar medium, two days, room temperature.
Setting [4] is: Globisporangium ultimum, 48 h, Rate 100 ppm in agar medium.
[5] abbreviates: Botrytis cinerea, 120 h, Rate 100 ppm in agar medium.
Setting [6] is: Oculimacula yallundae, Rate 100 ppm in agar medium.
Where [7] appears, read: Rhizoctonia solani, 48 h, Rate 100 ppm in agar medium, two days, room temperature.

Molecule `O=[N+]([O-])c1c(Br)[nH]c(Br)c1-c1ccccc1` [2,5-dibromo-3-nitro-4-phenyl-pyrrole] came in with an inhibition at 1 ppm in the experiment with Pythium ultimum (Pyth) (Globisporangium ultimum, 48 h) of 100%. In addition, the inhibition at 10 ppm worked out at 100% in experiment [1] (Oculimacula yallundae, Rate 10 ppm in agar medium) and 100% in experiment [2] (setting [3]).

In the experiment on Pythium ultimum (Pyth) (Globisporangium ultimum, 48 h), `N#Cc1cc([N+](=O)[O-])c(-c2ccc(Cl)c(Cl)c2)[nH]1` [5-(3,4-Dichlorophenyl)-4-nitropyrrole-2-carbonitrile] displayed an inhibition at 1 ppm of 100%. Further, the inhibition at 10 ppm in experiment [2] (setting [3]) was 100%.

As to `N#Cc1c(-c2ccccc2Cl)[nH]c(Cl)c1Cl` [4,5 Dichloro-2-(o-chlorophenyl) pyrrole-3-carbo-nitrile], in the experiment on Pythium ultimum (Pyth) (Rate 100 ppm in agar medium), the “% Growth Inhibition Pyth” value turned out to be 0%. Also, in the experiment with Botrytis cinerea (Botry) (Rate 100 ppm in agar medium), the “% Growth Inhibition Botry” value is 3.1%. For the same molecule, the “% Growth Inhibition Pseudo” value in experiment [1] (Rate 100 ppm in agar medium) was found to be 16.7%. Further, in experiment [2] (Rate 100 ppm in agar medium, two days, room temperature), the “% Growth Inhibition Rhiz” value is reported as 52.6%.

`N#Cc1cc[nH]c1-c1ccccc1` [2-Phenylpyrrole-3-carbonitrile, 2-Phenylpyrrole-3-carbonitrile]: the inhibition at 100 ppm is 100% in the experiment with Pythium ultimum (Pyth) (setting [4]), 95% in the experiment on Botrytis cinerea (Botry) (setting [5]), 100% in experiment [1] (setting [6]) and 89% in experiment [2] (setting [7]).

Take `N#Cc1cc[nH]c1-c1ccc(Cl)cc1` [2(p-Chlorophenyl)-pyrrole-3-carbonitrile]: the inhibition at 100 ppm in the experiment on Pythium ultimum (Pyth) (setting [4]) worked out at 95%; with Botrytis cinerea (Botry) (setting [5]), 68%; in experiment [1] (setting [6]), 86%; in experiment [2] (setting [7]), 61%.

`N#Cc1cc[nH]c1-c1cccc(Cl)c1` [2-(m-Chloro-phenyl)pyrrole-3-carbonitrile]: the inhibition at 100 ppm in the experiment with Pythium ultimum (Pyth) (setting [4]) turned out to be 82%; with Botrytis cinerea (Botry) (setting [5]), 74%; in experiment [1] (setting [6]), 67%; in experiment [2] (setting [7]), 95%.

Consider `O=[N+]([O-])c1c(-c2ccc(Br)cc2)[nH]c(Cl)c1Cl` [2-(p-Bromo-phenyl)-4,5-dichloro-3-nitropyrrole], for which the inhibition at 100 ppm in the experiment with Pythium ultimum (Pyth) (setting [4]) was determined as 68%; with Botrytis cinerea (Botry) (setting [5]) it was 89%; in experiment [1] (setting [6]), 83%; in experiment [2] (setting [7]), 92%.

For `N#Cc1c(-c2ccc(Cl)cc2)[nH]c(Cl)c1Cl` [4,5-Dichloro-2-(p-chlorophenyl)pyrrole-3-carbonitrile], the inhibition at 25 ppm in the experiment with Pythium ultimum (Pyth) (Globisporangium ultimum, 48 h, Rate 25 ppm in agar medium) is 34.2%; with Botrytis cinerea (Botry) (Botrytis cinerea, 120 h, Rate 25 ppm in agar medium) it was 82.1%; in experiment [1] (Oculimacula yallundae, Rate 25 ppm in agar medium), 0%; in experiment [2] (Rhizoctonia solani, 48 h, Rate 25 ppm in agar medium, two days, room temperature), 73.3%. In addition, the inhibition at 50 ppm in the experiment on Pythium ultimum (Pyth) (Globisporangium ultimum, 48 h, Rate 50 ppm in agar medium) came out at 44.7%; in the experiment on Botrytis cinerea (Botry) (Botrytis cinerea, 120 h, Rate 50 ppm in agar medium) it was 71.4%; in experiment [1] (Oculimacula yallundae, Rate 50 ppm in agar medium) it was 40%; in experiment [2] (Rhizoctonia solani, 48 h, Rate 50 ppm in agar medium, two days, room temperature), 73.3%. The inhibition at 100 ppm with Pythium ultimum (Pyth) (setting [4]) came to 45%; in the experiment on Botrytis cinerea (Botry) (setting [5]), 66.7%; in experiment [1] (setting [6]) it was 42.8%; in experiment [2] (setting [7]), 64.7%.

For the molecule `O=[N+]([O-])c1c(-c2ccccc2)[nH]c(Cl)c1Cl` [2,3-Dichloro-4-nitro-5-phenyl-pyrrole, 2,3-Dichloro-4-nitro-5-phenylpyrrole], the inhibition at 100 ppm with Pythium ultimum (Pyth) (setting [4]) worked out at 100%; in the experiment with Botrytis cinerea (Botry) (setting [5]) it was 97%; in experiment [1] (setting [6]) it was 100%; in experiment [2] (setting [7]), 81%.

For `O=[N+]([O-])c1c(-c2ccc(Cl)cc2)[nH]c(Cl)c1Cl` [2,3-Dichloro-5-(p-chlorophenyl) -4-nitropyrrole], the inhibition at 100 ppm in the experiment on Pythium ultimum (Pyth) (setting [4]) is 92.1%; in the experiment on Botrytis cinerea (Botry) (setting [5]) it was 96.3%; in experiment [1] (setting [6]) it was 50%; in experiment [2] (setting [7]) it was 96%.

Take `N#Cc1c(-c2ccc(Cl)cc2)[nH]c(C(F)(F)F)c1Br` [4-Bromo-2-(p-chlorophenyl)-5-(trifluoromethyl)pyrrole-3-carbonitrile]: in experiment [2] (Rhizoctonia solani, 48 h), the inhibition at 10 ppm was 100%.

`O=[N+]([O-])c1c(-c2ccc(C(F)(F)F)cc2)[nH]c(Cl)c1Cl` [2,3-Dichloro-4-nitro-5-(α,α,α-trifluoro-p-tolyl)-pyrrole]: the inhibition at 100 ppm (in the experiment with Pythium ultimum (Pyth) (setting [4]); in the experiment on Botrytis cinerea (Botry) (setting [5]); in experiment [1] (setting [6]); in experiment [2] (setting [7])) was 100% throughout.

As to `O=[N+]([O-])c1c(-c2ccccc2)[nH]c(Br)c1Br` [2,3-Dibromo-4-nitro-5-phenyl-pyrrole], the inhibition at 100 ppm with Pythium ultimum (Pyth) (setting [4]) turned out to be 97%; in the experiment with Botrytis cinerea (Botry) (setting [5]), 87%; in experiment [1] (setting [6]), 71%; in experiment [2] (setting [7]), 63%.

Source of the values: patent EP0358047A2, “Method of controlling phytopathogenic fungi” (AMERICAN CYANAMID COMPANY, priority 1988, dated 1990).
